Source: the supplement of paper PMC8617591

Experiments:
[1] = system: Mycobacterium tuberculosis Erdman (autoluminescent); experiment: total FIC90 (Loewe) at 90% inhibition, three-drug combination (log2); higher = more antagonistic
Method: (§1)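 DiaMOND equipotent three-drug combination dose responses (10 doses, 1.5- or 2-fold spacing, centred on IC90) against autoluminescent M. tuberculosis Erdman in 8 in vitro models. Read-out is OD600, or luminescence for the intracellular and dormancy models, normalised to untreated wells. Hill-fit Einf, AUC25 and GRinf are potency metrics; FIC50 and FIC90 are total Loewe fractional inhibitory concentrations as log2 (negative = synergy).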

[2] = system: Mycobacterium tuberculosis Erdman (autoluminescent); experiment: Einf, fitted maximum growth inhibition of three-drug combination (fraction); higher = stronger maximal inhibition
Method: as §1

[3] = system: Mycobacterium tuberculosis Erdman (autoluminescent); experiment: total FIC50 (Loewe) at 50% inhibition, three-drug combination (log2); higher = more antagonistic
Method: as §1

[4] = system: Mycobacterium tuberculosis Erdman (autoluminescent); experiment: AUC25, normalised area under dose response up to IC25 (three-drug combination) (fraction (0-1)); higher = more potent at low dose
Method: as §1

[5] = system: Mycobacterium tuberculosis Erdman (autoluminescent); experiment: GRinf, maximum normalised growth rate inhibition (three-drug combination) (unitless (-1 to 1)); higher = less effect (negative = killing)
Method: as §1

CC[C@@H](CO)NCCN[C@@H](CC)CO [ethambutol] + NNC(=O)c1ccncc1 [isoniazid] + CO[C@H]1/C=C/O[C@@]2(C)Oc3c(C)c(O)c4c(O)c(c(/C=N/N5CCN(C)CC5)c(O)c4c3C2=O)NC(=O)/C(C)=C\C=C\[C@H](C)[C@H](O)[C@@H](C)[C@@H](O)[C@@H](C)[C@H](OC(C)=O)[C@@H]1C [rifampicin]
Conditions	AUC25, [4]	Einf, [2]	GRinf, [5]	total FIC50, [3]	total FIC90, [1]
in vitro model: acidic pH 5.7, time point: constant (~7 days, model-specific)	0.104	0.899	-0.0987	-0.427	–
in vitro model: acidic pH 5.7, time point: terminal (~4-5 doublings, model-specific)	0.0385	0.97	-0.0837	0.126	-0.549
in vitro model: intracellular J774, time point: constant = terminal	–	0.967	-0.321	–	-2.19

Conditions	AUC25, [4]	Einf, [2]	GRinf, [5]	total FIC50, [3]	total FIC90, [1]
in vitro model: butyrate, time point: constant (~7 days, model-specific)	0.0804	0.936	-0.0122	0.2	–
in vitro model: butyrate, time point: terminal (~4-5 doublings, model-specific)	0.0612	0.972	-0.0091	0.238	-0.403
in vitro model: cholesterol 0.05 mM, time point: constant (~7 days, model-specific)	0.0636	0.617	0.000894	-0.456	–
in vitro model: cholesterol 0.05 mM, time point: terminal (~4-5 doublings, model-specific)	0.0895	0.867	0.194	0.41	–
in vitro model: cholesterol-high 0.2 mM, time point: constant (~7 days, model-specific)	0.0326	0.915	-0.23	0.757	–
in vitro model: cholesterol-high 0.2 mM, time point: terminal (~4-5 doublings, model-specific)	0.0525	0.997	-0.778	0.99	0.871
in vitro model: dormancy (butyrate + nitrate, low O2), time point: constant (~7 days, model-specific)	0.0838	0.872	0.364	-0.262	–
in vitro model: dormancy (butyrate + nitrate, low O2), time point: terminal (~4-5 doublings, model-specific)	0.079	0.992	-0.165	0.173	-0.24
in vitro model: standard 7H9 glycerol, time point: constant = terminal	0.0526	0.9	0.116	0.199	–
in vitro model: valerate, time point: constant (~7 days, model-specific)	0.0369	0.853	0.000652	0.253	–
in vitro model: valerate, time point: terminal (~4-5 doublings, model-specific)	0.0264	0.932	0.0672	0.302	-0.619

CC[C@@H](CO)NCCN[C@@H](CC)CO [ethambutol] + NNC(=O)c1ccncc1 [isoniazid] + COc1c(N2C[C@@H]3CCCN[C@@H]3C2)c(F)cc2c(=O)c(C(=O)O)cn(C3CC3)c12 [moxifloxacin]
Conditions	AUC25, [4]	Einf, [2]	GRinf, [5]	total FIC50, [3]	total FIC90, [1]
in vitro model: acidic pH 5.7, time point: constant (~7 days, model-specific)	0.0955	0.722	-0.273	-0.309	–
in vitro model: acidic pH 5.7, time point: terminal (~4-5 doublings, model-specific)	0.0597	0.933	-0.253	0.821	0.326
in vitro model: intracellular J774, time point: constant = terminal	–	0.976	-0.437	–	-0.746

Conditions	AUC25, [4]	Einf, [2]	GRinf, [5]	total FIC50, [3]	total FIC90, [1]
in vitro model: butyrate, time point: constant (~7 days, model-specific)	0.0852	0.938	-0.0732	0.655	–
in vitro model: butyrate, time point: terminal (~4-5 doublings, model-specific)	0.0658	0.974	-0.0933	0.598	0.445
in vitro model: cholesterol 0.05 mM, time point: constant (~7 days, model-specific)	0.119	0.798	-0.268	0.425	–
in vitro model: cholesterol 0.05 mM, time point: terminal (~4-5 doublings, model-specific)	0.0714	0.92	0.0114	1.23	0.826
in vitro model: cholesterol-high 0.2 mM, time point: constant (~7 days, model-specific)	0.0564	0.94	-0.315	0.863	–
in vitro model: cholesterol-high 0.2 mM, time point: terminal (~4-5 doublings, model-specific)	0.0472	1	-0.686	1.21	0.977
in vitro model: dormancy (butyrate + nitrate, low O2), time point: constant (~7 days, model-specific)	0.119	0.851	0.356	0.357	–
in vitro model: dormancy (butyrate + nitrate, low O2), time point: terminal (~4-5 doublings, model-specific)	0.125	0.986	-0.134	-0.452	0.658
in vitro model: standard 7H9 glycerol, time point: constant = terminal	0.0677	0.975	-0.186	0.205	0.328
in vitro model: valerate, time point: constant (~7 days, model-specific)	0.0908	0.876	-0.0258	0.301	–
in vitro model: valerate, time point: terminal (~4-5 doublings, model-specific)	0.0784	0.953	0.0174	0.421	0.19

CC[C@@H](CO)NCCN[C@@H](CC)CO [ethambutol] + NNC(=O)c1ccncc1 [isoniazid] + NC(=O)c1cnccn1 [pyrazinamide]
Conditions	AUC25, [4]	Einf, [2]	GRinf, [5]	total FIC50, [3]	total FIC90, [1]
in vitro model: acidic pH 5.7, time point: constant (~7 days, model-specific)	0.0856	0.755	-0.322	0.219	–
in vitro model: acidic pH 5.7, time point: terminal (~4-5 doublings, model-specific)	0.076	0.953	-0.269	0.788	-0.0381
in vitro model: intracellular J774, time point: constant = terminal	–	0.988	-0.458	–	0.0195

Conditions	AUC25, [4]	Einf, [2]	GRinf, [5]	total FIC50, [3]	total FIC90, [1]
in vitro model: butyrate, time point: constant (~7 days, model-specific)	0.0862	0.936	-0.0472	0.362	–
in vitro model: butyrate, time point: terminal (~4-5 doublings, model-specific)	0.0571	0.956	0.000899	0.43	0.0924
in vitro model: cholesterol 0.05 mM, time point: constant (~7 days, model-specific)	0.115	0.804	-0.282	–	–
in vitro model: cholesterol 0.05 mM, time point: terminal (~4-5 doublings, model-specific)	0.119	0.953	-0.377	0.635	–
in vitro model: cholesterol-high 0.2 mM, time point: constant (~7 days, model-specific)	0.0628	0.921	-0.27	0.837	–
in vitro model: cholesterol-high 0.2 mM, time point: terminal (~4-5 doublings, model-specific)	0.0569	1	-0.8	0.879	0.821
in vitro model: dormancy (butyrate + nitrate, low O2), time point: constant (~7 days, model-specific)	0.0979	0.822	0.394	-0.294	–
in vitro model: dormancy (butyrate + nitrate, low O2), time point: terminal (~4-5 doublings, model-specific)	0.104	0.972	-0.0582	0.22	1.09
in vitro model: standard 7H9 glycerol, time point: constant = terminal	0.063	0.862	0.233	0.587	–
in vitro model: valerate, time point: constant (~7 days, model-specific)	0.069	0.819	0.124	0.411	–
in vitro model: valerate, time point: terminal (~4-5 doublings, model-specific)	0.0469	0.898	0.113	0.582	0.569
